Results on 21 compounds are retold here after patent publication US10316017B2, “COT modulators and methods of use thereof” (Gilead Sciences, Inc., priority 2015, dated 2019).

For orientation: IC50 means the concentration needed to halve the response being measured. As usually defined, the EC50 is the concentration needed to bring the measured effect to its halfway point.

For assay [1], the target named is T1, human Cot catalytic domain (30-397 amino acids) (Homo sapiens, UniProt P41279).
T1 construct: Purified recombinant human Cot catalytic domain (30-397 amino acids) was purchased from Cama Biosciences; purchased Cama Biosciences (so in the source)
As to the kind of experiment: High Throughput Cot Biochemical Assay (KinEASE TR-FRET). As to conditions: read-out: IC50 HTRF. Summed up: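 First, purified human Cot (aa 30-397) at 5 nM phosphorylates an XL665-labeled STK3 peptide (1 μM) at 400 μM ATP, pH 7.0, 0.1% DMSO. Then a europium-conjugated phospho-specific antibody binds the product, giving the TR-FRET signal.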
For orientation: In TR-FRET formats the signal depends on donor and acceptor labels being close together.

For assay [2], the system named is TNFα production in LPS-stimulated human monocytes. The assay can be described thus: Cot Monocyte TNFα Cell Based Assay. The following applies: Homo sapiens, Monocyte, read-out: EC50 TNF. Summed up: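 5,000 cells/well; cmpd 1 h, 37 °C, 0.5% DMSO final; LPS 50 pg/ml, 4 h, 37 °C; media TNFα by HTRF sandwich (cryptate/XL665), RT overnight; % control vs unstimulated/stimulated wells.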

Where [3] appears, read: Cot biochemical HTRF (KinEASE TR-FRET) assay.
Setting [4] is: TNFα in LPS-stimulated human monocytes.
Setting [5] is: Cot KinEASE TR-FRET, 400 μM ATP.
[6] abbreviates: LPS-stimulated human monocytes, TNFα TR-FRET.
Where [7] appears, read: Cot KinEASE TR-FRET (HTRF) biochemical assay, 400 μM ATP.

Molecules are shown by their SMILES. Like-named read-outs stand apart in the source and are kept apart here.

T1 sequence (P41279 30-397): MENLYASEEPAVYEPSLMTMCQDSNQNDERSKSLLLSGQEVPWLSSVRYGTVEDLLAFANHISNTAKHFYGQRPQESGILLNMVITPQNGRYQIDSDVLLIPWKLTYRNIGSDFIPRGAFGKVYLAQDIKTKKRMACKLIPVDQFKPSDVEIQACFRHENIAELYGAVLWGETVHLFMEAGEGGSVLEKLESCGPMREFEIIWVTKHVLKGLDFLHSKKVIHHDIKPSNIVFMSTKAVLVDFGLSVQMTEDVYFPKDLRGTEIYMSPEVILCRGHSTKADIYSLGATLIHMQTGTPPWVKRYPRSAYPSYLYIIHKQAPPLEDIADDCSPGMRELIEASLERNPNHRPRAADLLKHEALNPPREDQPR

For `N#Cc1cnc2c(Cl)cc(N[C@H](c3c[nH]nn3)c3ccccc3C(F)F)cc2c1Nc1cnc(F)c(F)c1` [Example 404, (S)-8-chloro-6-(((2-(difluoromethyl)phenyl) (1H-1,2,3-triazol-4-yl)methyl)amino)-4-((5,6-difluoropyridin-3-yl)amino)quinoline-3-carbonitrile], in assay [1] (setting [3]), the IC50 came out at 34 nM. For the same compound, in assay [2] (setting [4]), the EC50 was determined as 570 nM.

Turning to `CC[C@@H](Nc1c(C#N)cnc2c(C#N)cc(N[C@@H](c3cccc(C(=O)N4CC(F)(F)C4)c3)c3cn(C4CC4)nn3)cc12)c1ccccc1` [Example 943, 6-(((S)-(1-cyclopropyl-1H-1,2,3-triazol-4-yl)(3-(3,3-difluoroazetidine-1-carbonyl)phenyl)methyl)amino)-4-(((R)-1-phenylpropyl)amino)quinoline-3,8-dicarbonitrile], in assay [1] (setting [5]), the IC50 stood at 4 nM. In addition, the EC50 in assay [2] (setting [6]) was found to be 93 nM.

As to `COc1c([C@@H](Nc2cc(C#N)c3ncc(C#N)c(NCC(C)(C)C)c3c2)c2ccccc2Cl)nnn1C1(C)CC1` [Example 1160, (S)-6-(((2-chlorophenyl)(5-methoxy-1-(1-methylcyclopropyl)-1H-1,2,3-triazol-4-yl)methyl)amino)-4-(neopentylamino)quinoline-3,8-dicarbonitrile], the IC50 in assay [1] (setting [5]) was found to be 71 nM. Besides, the EC50 in assay [2] (setting [6]) is 930 nM.

For the compound `[2H][C@](Nc1cc(Cl)c2ncc(C#N)c(Nc3cccc(Cl)c3)c2c1)(c1ccc(F)cc1)c1cn(C2CC2)nn1` [Example 947, (S)-8-chloro-4-((3-chlorophenyl)amino)-6-(((1-cyclopropyl-1H-1,2,3-triazol-4-yl)(4-fluorophenyl)methyl-d)amino)quinoline-3-carbonitrile], in assay [1] (setting [5]), the 50% inhibitory concentration (IC50) was determined as 14 nM. The half-maximal effective concentration (EC50) in assay [2] (setting [6]) came out at 282 nM.

In the case of `[2H][C@](Nc1cc(Cl)c2ncc(C#N)c(N[C@H](CCC#N)c3ccccc3)c2c1)(c1ccc(F)cc1)c1cn(C2(C(F)(F)F)CC2)nn1` [Example 938, 8-chloro-4-(((R)-3-cyano-1-phenylpropyl)amino)-6-(((S)-(4-fluorophenyl)(1-(1-(trifluoromethyl)cyclopropyl)-1H-1,2,3-triazol-4-yl)methyl-d)amino)quinoline-3-carbonitrile], the IC50 in assay [1] (setting [5]) worked out at 6 nM. The EC50 in assay [2] (setting [6]) worked out at 71 nM.

In the case of `CC(C)(C)N1CCC(n2cc([C@@H](Nc3cc(Cl)c4ncc(C#N)c(Nc5ccc(F)c(Cl)c5)c4c3)c3ccc(Cl)cc3)nn2)CC1` [Example 803, (S)-6-(((1-(1-(tert-butyl)piperidin-4-yl)-1H-1,2,3-triazol-4-yl)(4-chlorophenyl)methyl)amino)-8-chloro-4-((3-chloro-4-fluorophenyl)amino)quinoline-3-carbonitrile], the IC50 in assay [1] (setting [3]) was found to be 7 nM. Moreover, the EC50 in assay [2] (setting [4]) was 206 nM.

In the case of `Cc1c([C@H](Nc2cc(C#N)c3ncc(C#N)c(NCC(C)(C)C)c3c2)c2cn(C3(C(F)F)CC3)nn2)cccc1-n1cnnc1` [Example 1073, (S)-6-(((1-(1-(difluoromethyl)cyclopropyl)-1H-1,2,3-triazol-4-yl)(2-methyl-3-(4H-1,2,4-triazol-4-yl)phenyl)methyl)amino)-4-(neopentylamino)quinoline-3,8-dicarbonitrile], the IC50 in assay [1] (setting [5]) was 1 nM. Further, the EC50 in assay [2] (setting [6]) was no less than 1000 nM.

For the compound `CC(C)(C)N1CCC(n2cc([C@@H](Nc3cc(Cl)c4ncc(C#N)c(N[C@@H]5CCCc6ccccc65)c4c3)c3ccccc3)nn2)CC1` [Example 487, 6-(((S)-(1-(1-(tert-butyl)piperidin-4-yl)-1H-1,2,3-triazol-4-yl)(phenyl)methyl)amino)-8-chloro-4-(((R)-1,2,3,4-tetrahydronaphthalen-1-yl)amino)quinoline-3-carbonitrile], the 50% inhibitory concentration (IC50) in assay [1] (setting [3]) was 2250 nM. The EC50 in assay [2] (setting [4]) was found to be 6780 nM.

As for `CCN1CC2C(C1)C2n1cc([C@@H](Nc2cc(Cl)c3ncc(C#N)c(Nc4ccc(F)c(Cl)c4)c3c2)c2ccccc2)nn1` (stereo partly drawn) [Example 576, 8-chloro-4-((3-chloro-4-fluorophenyl)amino)-6-(((1S)-(1-(3-ethyl-3-azabicyclo[3.1.0]hexan-6-yl)-1H-1,2,3-triazol-4-yl)(phenyl)methyl)amino) quinoline-3-carbonitrile], the half-maximal inhibitory concentration (IC50) in assay [1] (setting [3]) was determined as 2 nM. Besides, in assay [2] (setting [4]), the half-maximal effective concentration (EC50) turned out to be 72 nM.

For `CC[C@@H](Nc1c(C#N)cnc2c(Cl)cc(N[C@@H](c3cccc(C(=O)N4CC(O)C4)c3)c3c[nH]nn3)cc12)c1ccccc1` [Example 560], the IC50 in assay [1] (setting [3]) was found to be 3 nM. The EC50 in assay [2] (setting [4]) is 8830 nM.

For `N#Cc1cnc2c(Cl)cc(N[C@@H](c3cccc(C(F)(F)F)c3)c3cn(C4CC4)nn3)cc2c1Nc1cnc(F)c(F)c1` [Example 264, (S)-8-chloro-6-(((1-cyclopropyl-1H-1,2,3-triazol-4-yl)(3-(trifluoromethyl)phenyl)methyl)amino)-4-((5,6-difluoropyridin-3-yl)amino)quinoline-3-carbonitrile], in assay [1] (setting [7]), the IC50 stood at 45 nM. In addition, in assay [2] (setting [4]), the EC50 was 567 nM.

As to `CC(C)(C)N1CCC(n2cc([C@@H](Nc3cc(Cl)c4ncc(C#N)c(Nc5ccc(OCc6ccccn6)c(Cl)c5)c4c3)c3ccccc3)nn2)CC1` [Example 786, (S)-6-(((1-(1-(tert-butyl)piperidin-4-yl)-1H-1,2,3-triazol-4-yl)(phenyl)methyl)amino)-8-chloro-4-((3-chloro-4-(pyridin-2-ylmethoxy)phenyl)amino)quinoline-3-carbonitrile], the IC50 in assay [1] (setting [3]) is 173 nM. In assay [2] (setting [4]), the EC50 stood at 6630 nM.

Consider `Cc1ccccc1[C@H](Nc1cc(Cl)c2ncc(C#N)c(NCC(C)(C)C)c2c1)c1cn(C2(C(F)(F)F)CC2)nn1` [Example 1061, (S)-8-chloro-4-(neopentylamino)-6-((o-tolyl(1-(1-(trifluoromethyl)cyclopropyl)-1H-1,2,3-triazol-4-yl)methyl)amino)quinoline-3-carbonitrile], for which the IC50 in assay [1] (setting [5]) was 85 nM. In assay [2] (setting [6]), the EC50 is 620 nM.

As for `[2H][C@@](Nc1cc(Br)c2ncc(C#N)c(N[C@H](CCC#N)c3ccccc3)c2c1)(c1cn(C2CC2)nn1)c1ccccc1Cl` [Example 930, 8-bromo-6-(((S)-(2-chlorophenyl)(1-cyclopropyl-1H-1,2,3-triazol-4-yl)methyl-d)amino)-4-(((R)-3-cyano-1-phenylpropyl)amino) quinoline-3-carbonitrile], the IC50 in assay [1] (setting [5]) was found to be 5 nM. For the same compound, the EC50 in assay [2] (setting [6]) stood at 66 nM.

For `[2H][C@](Nc1cc(Cl)c2ncc(C#N)c(NC3CS(=O)(=O)C3)c2c1)(c1ccc(F)cc1)c1cn(C2CC2)nn1` [Example 200, (S)-8-chloro-6-(((1-cyclopropyl-1H-1,2,3-triazol-4-yl)(4-fluorophenyl)methyl-d)amino)-4-((1,1-dioxidothietan-3-yl)amino)quinoline-3-carbonitrile], the IC50 in assay [1] (setting [7]) came to 244 nM. The EC50 in assay [2] (setting [4]) was determined as 7580 nM.

Take `CC(=O)N(C)c1cccc([C@H](Nc2cc(Br)c3ncc(C#N)c(NCC(C)(C)C)c3c2)c2cn(C3CC3)nn2)c1` [Example 78, (S)-N-(3-(((8-bromo-3-cyano-4-(neopentylamino)quinolin-6-yl)amino) (1-cyclopropyl-1H-1,2,3-triazol-4-yl)methyl)phenyl)-N-methylacetamide]: the IC50 in assay [1] (setting [7]) amounted to 5 nM. In assay [2] (setting [4]), the EC50 turned out to be 436 nM.

For the compound `Cn1cc(Nc2c(C#N)cnc3c(Cl)cc(N[C@@H](c4ccccc4)c4cn(C5CCN(C(C)(C)C)CC5)nn4)cc23)cn1` [Example 478, (S)-6-(((1-(1-(tert-butyl)piperidin-4-yl)-1H-1,2,3-triazol-4-yl)(phenyl)methyl)amino)-8-chloro-4-((1-methyl-1H-pyrazol-4-yl)amino)quinoline-3-carbonitrile], the 50% inhibitory concentration (IC50) in assay [1] (setting [3]) was 1050 nM. The EC50 in assay [2] (setting [4]) came to 5530 nM.

`N#Cc1cnc2c(Cl)cc(N[C@@H](c3ccc(F)cc3)c3cn(CCF)nn3)cc2c1Nc1cnc(F)c(F)c1` [Example 493, (S)-8-chloro-4-((5,6-difluoropyridin-3-yl)amino)-6-(((1-(2-fluoroethyl)-1H-1,2,3-triazol-4-yl)(4-fluorophenyl)methyl)amino) quinoline-3-carbonitrile]: the IC50 in assay [1] (setting [3]) was 18 nM. The concentration giving a half-maximal response (EC50) in assay [2] (setting [4]) came to 1220 nM.

Take `CC(C)(C)N1CCC(n2cc([C@@H](Nc3cc(Cl)c4ncc(C#N)c(N[C@H]5CCCOC5)c4c3)c3ccccc3)nn2)CC1` [Example 539, 6-(((S)-(1-(1-(tert-butyl)piperidin-4-yl)-1H-1,2,3-triazol-4-yl)(phenyl)methyl)amino)-8-chloro-4-(((S)-tetrahydro-2H-pyran-3-yl)amino)quinoline-3-carbonitrile]: the IC50 in assay [1] (setting [3]) was determined as 337 nM. The EC50 in assay [2] (setting [4]) stood at 3070 nM.

On to `CC(C)(C)N1CCC(n2cc([C@@H](Nc3cc(Cl)c4ncc(C#N)c(Nc5ccc(Cl)c(Cl)c5F)c4c3)c3ccccc3)nn2)CC1` [Example 781, (S)-6-(((1-(1-(tert-butyl)piperidin-4-yl)-1H-1,2,3-triazol-4-yl)(phenyl)methyl)amino)-8-chloro-4-((3,4-dichloro-2-fluorophenyl)amino)quinoline-3-carbonitrile], for which the IC50 in assay [1] (setting [3]) stood at 11 nM. The EC50 in assay [2] (setting [4]) was found to be 597 nM.

In the case of `CCN1CC(Cn2cc([C@@H](Nc3cc(Cl)c4ncc(C#N)c(Nc5ccc(F)c(Cl)c5)c4c3)c3ccccc3)nn2)C1` [Example 747, (S)-8-chloro-4-((3-chloro-4-fluorophenyl)amino)-6-(((1-((1-ethylazetidin-3-yl)methyl)-1H-1,2,3-triazol-4-yl)(phenyl)methyl)amino) quinoline-3-carbonitrile], the IC50 in assay [1] (setting [3]) came out at 4 nM. In addition, the concentration for a half-maximal effect (EC50) in assay [2] (setting [4]) amounted to 110 nM.
